IC50 data for six molecules are collected here from ChEMBL document CHEMBL1128024, “Carbocyclic analogues of hydroxyethylamine containing inhibitors of HIV proteinase” (Bioorg Med Chem Lett, 1994).

The first experiment deals with Human immunodeficiency virus. Put plainly: In vitro antiviral activity against human immuno deficiency virus was determined. In kind it is functional, organism-based. Conditions: Human immunodeficiency virus 1.
The term IC50 denotes the point on the concentration scale where inhibition reaches its midpoint. A low value points to inhibition by little substance. In turn, `CC(C)(C)NC(=O)[C@@H]1CCCC[C@@H]1C[C@@H](O)[C@H](Cc1ccccc1)NC(=O)[C@H](CC(N)=O)NC(=O)OCc1ccccc1` came in with a half-maximal inhibitory concentration (IC50) of 1000 nM.
The same measure, in the same setting: the same measure for `CC(C)(C)NC(=O)[C@@H]1CCCC[C@H]1C[C@@H](O)[C@H](Cc1ccccc1)NC(=O)[C@H](CC(N)=O)NC(=O)OCc1ccccc1` (mixture of isomers): 40 nM; for `CC(C)(C)NC(=O)[C@@H]1CCCCN1C[C@@H](O)[C@H](Cc1ccccc1)NC(=O)[C@H](CC(N)=O)NC(=O)c1ccc2ccccc2n1`: 17 nM; for `CC(C)(C)NC(=O)[C@@H]1C[C@@H]2CCCCC2CN1C[C@@H](O)[C@H](Cc1ccccc1)NC(=O)[C@H](CC(N)=O)NC(=O)c1ccc2ccccc2n1` (single isomer, unassigned): 2 nM.
On the same count and under the same terms, the same measure for `CC(C)(C)NC(=O)[C@@H]1CCCC[C@H]1C[C@@H](O)[C@H](Cc1ccccc1)NC(=O)[C@H](CC(N)=O)NC(=O)c1ccc2ccccc2n1`: 4 nM; for `CC(C)(C)NC(=O)[C@@H]1CCCCN1C[C@@H](O)[C@H](Cc1ccccc1)NC(=O)[C@H](CC(N)=O)NC(=O)OCc1ccccc1`: 300 nM.

The target in the next experiment is Human immunodeficiency virus type 1 protease (Human immunodeficiency virus 1, UniProt Q72874). Put plainly: Inhibitory activity against HIV-1 Protease was determined.
Details: not given
`CC(C)(C)NC(=O)[C@@H]1CCCCN1C[C@@H](O)[C@H](Cc1ccccc1)NC(=O)[C@H](CC(N)=O)NC(=O)c1ccc2ccccc2n1` yielded an IC50 of 2 nM. This counts as single-digit nanomolar.
